Reference: US8487117B2, “Atropisomers of (hydroxyalkyl) pyrrole derivatives” (Exelixis, Inc., priority 2008, dated 2013)

Assays:
[1] = target: T1, human mineralocorticoid receptor (hMR), GAL4-hMR receptor (Homo sapiens, UniProt P08235); experiment: GAL4-hMR-LBD luciferase reporter assay in HEK293 cells with 1 nM aldosterone (mineralocorticoid receptor antagonistic action); assay type: cell-based; settings: for IC50: concentration which shows Imax/2, HEK293, GAL4-hMR-LBD, luciferase, with 1 nM aldosterone, read-out: ICmax50; for Imax: maximum value, DMSO control = 0%, 1 nM aldosterone control = 100%, HEK293 luciferase reporter
T1 construct: expressed in transfected cells; host or cells: HEK293
T1 sequence (P08235 726-964 limits assumed): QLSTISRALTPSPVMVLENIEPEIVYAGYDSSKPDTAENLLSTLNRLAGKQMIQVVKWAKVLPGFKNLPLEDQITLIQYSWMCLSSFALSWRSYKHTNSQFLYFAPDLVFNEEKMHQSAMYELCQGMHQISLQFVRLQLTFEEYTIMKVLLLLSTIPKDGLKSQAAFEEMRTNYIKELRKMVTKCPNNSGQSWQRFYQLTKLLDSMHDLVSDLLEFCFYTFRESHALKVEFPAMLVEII
Procedure: A plasmid pM-hMR-LBD expressing GAL4-hMR receptor, which has a ligand binding domain (LBD, corresponds to approximately 308 amino acids at the carboxy terminus) of human mineralocorticoid receptor (hMR, NM_000901) bonded to a DNA binding domain of yeast transcription factor GAL4 (corresponding to 147 amino acids at the amino terminus), was prepared. Reporter assay was conducted by using a reporter plasmid (such as STRATAGENE CLONING SYSTEMS, pFR-Luc) including a luciferase gene, having a sequence (UAS sequence) which binds to the DNA binding domain of GAL4.
The plasmid pM-hMR-LBD and the reporter plasmid as obtained above were gene transferred into renal cell line HEK293 of human fetus by lipofection. On the next day, cells were collected by trypsin treatment, and were dispensed with DMEM culture medium containing 5% of FBS treated by activated charcoal, to a white 96-well plate (Costar) with the amount of 95 microliter per well.
The Test Compounds were used by dissolving them in dimethyl sulfoxide at a predetermined concentration, and the test compounds suitably diluted with culture media were added to the cells on the white 96-well plate so that the final concentration becomes 0.1%. When adding the Test Compounds, they were accompanied with 1 nM aldosterone. The well group of Control group 1 was added with dimethyl sulfoxide, and the well group of Control group 2 was added with 1 nM aldosterone. After addition, cultivation was carried out overnight.
On the next day, the culture media was removed, and then luciferase substrate (Wako Pure Chemical Industries, Ltd.) was prepared in accordance with the attached document and were added to each well by 50 microliters. Stirring was conducted for approximately 30 minutes, and the amount of luminescence was measured for each well by using Analyst (Molecular Devices), to obtain luciferase activity. A graph which plots relative luciferase activity values, when the luciferase activity value of Control group 1 was taken as 0% and the luciferase activity value of Control group 2 was taken as 100%, for each of the amount of the test compound addition group was made.

[2] = Plasma concentration after intragastric administration to cynomolgus monkey (LC-MS/MS); assay type: in vivo; settings: male cynomolgus monkey, fasted, 3 mg/kg intragastric in 0.5% MC; for AUC: Area under the plasma concentration versus time curve: blood up to 48 h, noncompartment model; for Cmax: po, plasma, read-out: Cmax: Maximum concentration
Procedure: Cynomolgus monkey (male) was used, and was fasted from the day before the administration of the Test Compound.
Administration samples were prepared by adding 0.5% MC (methyl cellulose) solution to the Test Compound, so that the dose becomes 3 mg/2 mL/kg. Each of the administration samples was administered intragastrically to the cynomolgus monkey by using a tube. After the samples were administered, approximately 5 mL of 0.5% MC was administered. For each of the administration samples, a group of two cynomolgus monkeys was administered.
With respect to collection of blood, it was conducted by collecting approximately 0.5 mL of blood from femoral vein using a glass syringe treated with heparin, before administration, and 30 minutes, 1, 2, 4, 6, 8, 24 and 48 hours after administration. Blood was centrifuged (1,700×g, 15 min, 4° C.) to obtain plasma. Plasma was stored in a freezer (−20° C.) until pretreatment.
Preparation of standard solution and internal standard (“IS”) solution: Each of the Test Compounds was dissolved in DMSO (dimethyl sulfoxide) to prepare a solution of 10 mM each. Each of the compound solution was diluted with acetonitrile, and thus standard solution was prepared. Further, niflumic acid (Wako Pure Chemical Industries, Ltd.) was dissolved in DMSO at the concentration of 2 mM, followed by dilution with acetonitrile to prepare an IS solution of 2 μM.
Pretreatment of plasma samples: 20 μL of plasma sample was collected, and then 25 μL of purified water, 100 μL of acetonitrile, and 100 μL of methanol was added. For the preparation of a calibration curve, 25 μL of purified water, 20 μL of each of the standard solutions (acetonitrile solution), 80 μL of acetonitrile, and 100 μL of methanol were added to 20 μL of blank plasma. 40 μL of the acetonitrile solution of IS was added to all of the samples, and then the samples were stirred, filtered by suction using Captiva filter plate (Varian, Inc.), and then the filtrate was used as the sample for LC-MS/MS analysis.
Quantitative Determination of Test Compound: Concentration in plasma was analyzed by LC-MS/MS method for each Test Compound.
[HPLC Analysis Conditions]
• HPLC: WATERS 2795 (Waters Corporation); • Column: CAPCELL PAK C8, 2.0 mm I.D.×50 mm, 5 μm (Shiseido Co., Ltd.) • Mobile Phase: A=5 mM ammonium acetate aqueous solution, B=acetonitrile [MS/MS Analysis Conditions] • MS: Quattro micro API (Waters Corporation) • Ionization Method: Electrospray Ionization (“ESI”) • Ionization Mode: Positive • Detection Mode: MRM • Analysis: Pharmacokinetic parameter was calculated from concentration of each of the drugs in plasma, by using WinNonlin Professional (Ver. 4.0.1, Pharsight Corporation). Here, noncompartment model was used as the model for parameter calculation. (Results)

SMILES | IC50 [1] [nM] | Imax [1] [%] | AUC: Area under the plasma concentration versus time curve [2] [ng·h/mL] | Cmax [2] [ng/mL]
Cc1c(C(=O)Nc2ccc(S(C)(=O)=O)cc2)cn([C@H](C)[C@H](C)O)c1-c1ccc(F)cc1Cl (single isomer, unassigned) [Example 4-isomer A] | 11 | 103 | – | –
Cc1c(C(=O)Nc2ccc(S(C)(=O)=O)cc2)cn([C@H](C)[C@H](C)O)c1-c1ccc(F)cc1Cl [Example 4, 5-(2-Chloro-4-fluorophenyl)-1-[(1R,2S)-2-hydroxy-1-methylpropyl]-4-methyl-N-[4-(methylsulfonyl)phenyl]-1H-pyrrole-3-carboxamide] | 10 | 106 | – | –
Cc1c(C(=O)Nc2ccc(S(C)(=O)=O)cc2)cn([C@H](C)[C@H](C)O)c1-c1ccc(F)cc1Cl (single isomer, unassigned) [Example 4-isomer B] | > 1000 | – | – | –
Cc1c(C(=O)Nc2ccc(S(C)(=O)=O)cc2)cn([C@H](C)[C@H](C)O)c1-c1ccc(Cl)cc1C(F)(F)F (atropisomer, axis not shown) [Example 3, 5-[4-Chloro-2-(trifluoromethyl)phenyl]-1-[(1R,2S)-2-hydroxy-1-methylpropyl]-4-methyl-N-[4-(methylsulfonyl)phenyl]-1H-pyrrole-3-carboxamide] | 6.7 | 95 | – | –
Cc1c(C(=O)Nc2ccc(S(C)(=O)=O)cc2)cn([C@H](C)[C@H](C)O)c1-c1ccc(Cl)cc1C(F)(F)F (single isomer, unassigned) [Example 3-isomer B] | > 1000 | – | – | –
Cc1c(C(=O)Nc2ccc(S(C)(=O)=O)cc2)cn([C@H](C)[C@H](C)O)c1-c1ccccc1C(F)(F)F (single isomer, unassigned) [Example 1-isomer A] | 2.9 | 117 | – | –
Cc1c(C(=O)Nc2ccc(S(C)(=O)=O)cc2)cn(CCO)c1-c1ccccc1C(F)(F)F (racemic) [Comparative compound, 1-(2-hydroxyethyl)-4-methyl-N-[4-(methylsulfonyl)phenyl]-5-[2-(trifluoromethyl)phenyl]-1H-pyrrole-3-carboxamide, reference compound] | 5.3 | 105 | 4090 | 230
Cc1c(C(=O)Nc2ccc(S(C)(=O)=O)cc2)cn([C@H](C)[C@H](C)O)c1-c1ccc(F)cc1C(F)(F)F (single isomer, unassigned) [Example 2-isomer B] | > 1000 | – | – | –
Cc1c(C(=O)Nc2ccc(S(C)(=O)=O)cc2)cn([C@H](C)[C@H](C)O)c1-c1ccccc1C(F)(F)F (single isomer, unassigned) [Example 1-isomer B] | > 1000 | – | – | –
Cc1c(C(=O)Nc2ccc(S(C)(=O)=O)cc2)cn([C@H](C)[C@H](C)O)c1-c1ccc(F)cc1C(F)(F)F [Example 2, 5-[4-Fluoro-2-(trifluoromethyl)phenyl]-1-[(1R,2S)-2-hydroxy-1-methylpropyl]-4-methyl-N-[4-(methylsulfonyl)phenyl]-1H-pyrrole-3-carboxamide] | 6.2 | 88 | – | –
Cc1c(C(=O)Nc2ccc(S(C)(=O)=O)cc2)cn([C@H](C)[C@H](C)O)c1-c1ccc(F)cc1C(F)(F)F (single isomer, unassigned) [Example 2-isomer A] | 3.8 | 103 | 30320 | 1280
Cc1c(C(=O)Nc2ccc(S(C)(=O)=O)cc2)cn([C@H](C)[C@H](C)O)c1-c1ccccc1C(F)(F)F [Example 1, 1-[(1R,2S)-2-Hydroxy-1-methylpropyl]-4-methyl-N-[4-(methylsulfonyl)phenyl]-5-[2-(trifluoromethyl)phenyl]-1H-pyrrole-3-carboxamide] | 6.6 | 115 | – | –
Cc1c(C(=O)Nc2ccc(S(C)(=O)=O)cc2)cn([C@H](C)[C@H](C)O)c1-c1ccc(Cl)cc1C(F)(F)F (single isomer, unassigned) [Example 3-isomer A] | 4.6 | 108 | 42490 | 1440
